# In patent US6828317B2, “Antimicrobial thiadiazinone derivatives and their application for treatment of bacterial infections” (Pharmacia & Upjohn Company, priority 2002, dated 2004):
# Assays:
# S. pneumoniae UC9912 = assay: MIC by agar dilution, S. pneumoniae UC9912; format: cell-based; conditions: Streptococcus pneumoniae, Mueller Hinton agar, overnight at 35° C.
# Description: (§1) The in vitro activity of compounds of the subject invention may be assessed by standard testing procedures such as the determination of minimum inhibitory concentration (MIC) by agar dilution as described in “Approved Standard. Methods for Dilution Antimicrobial Susceptibility Tests for Bacteria that Grow Aerobically,” 3rd ed., published 1993 by the National Committee for Clinical Laboratory standards, Villanova, Pa., USA. The in vitro MICs of test compounds may be determined by a standard agar dilution method. A stock drug solution of each analog is prepared in a preferred solvent, usually DMSO:H2O (1:3). Serial 2-fold dilutions of each sample are made using 1.0 ml aliquots of sterile distilled water. To each 1.0 ml aliquot of drug is added 9 ml of molten Mueller Hinton agar medium. The drug-supplemented agar is mixed, poured into 15×100 mm petri dishes, and allowed to solidify and dry prior to inoculation. Vials of each of the test microorganisms are maintained frozen in the vapor phase of a liquid nitrogen freezer. Test cultures are grown overnight at 35° C. on the medium appropriate for the microorganism. Colonies are harvested with a sterile swab, and cell suspensions are prepared in Trypticase Soy broth (TSB) to equal the turbidity of a 0.5 McFarland standard. A 1:20 dilution of each suspension is made in TSB. The plates containing the drug supplemented agar are inoculated with a 0.001 ml drop of the cell suspension using a Steers replicator, yielding approximately 10^4 to 10^5 cells per spot. The plates are incubated overnight at 35° C. Following incubation the Minimum Inhibitory Concentration (MIC μg/ml), the lowest concentration of drug that inhibits visible growth of the microorganism, is read and recorded.
# S. aureus UC9213 = assay: MIC by agar dilution, S. aureus UC9213; format: cell-based; conditions: Staphylococcus aureus, Mueller Hinton agar, overnight at 35° C.
# Description: as §1
# H. influenzae 30063 = assay: MIC by agar dilution, H. influenzae 30063; format: cell-based; conditions: Haemophilus influenzae, Mueller Hinton agar, overnight at 35° C.
# Description: as §1
Compound,MIC (S. pneumoniae UC9912),MIC (S. aureus UC9213),MIC (H. influenzae 30063),melting point
"CC(=O)NC[C@H]1CN(c2ccc(C3=NN(C)C(=O)CS3)c(F)c2)C(=O)O1 [Example 32, N-{3-[3-Fluoro-4-(4-methyl-5-oxo-5,6-dihydro-[1,3,4]thiadiazin-2-yl)-phenyl]-2-oxo-oxazolidin-5(S)-ylmethyl}-acetamide]",0.5 µg/mL,2 µg/mL,16 µg/mL,179 to 180 °C
O=C1CSC(c2ccc(N3C[C@H](CO)OC3=O)cc2F)=NN1 [Example 34],0.25 µg/mL,0.125 µg/mL,1 µg/mL,224 to 227 °C
